Measurements: patent US20260256765A1, “METHOD OF TREATING DISEASE USING COMPOUND, AND USE OF COMPOUND” (TENNOR THERAPEUTICS (SUZHOU) LIMITED, priority 2023, published 2026)
≈ marks a conversion by molar mass, not a printed value. Read-outs that look alike come from different tables or passages of the source.

Assays:
Format in all cases: cell-based
[1] = tested on: Staphylococci (43 strains); assay: MBBC against biofilms of clinical DFI isolates, staphylococci total
Procedure: (§1) Preparation of test strains: In this example, foot specimens were collected from 49 patients with type II diabetes. Isolates were obtained from the specimens described above through homogenization, plating, and culture at 37° C., and after the removal of fungi and strains with poor growth or strains that could not be isolated and purified, a total of 69 clinical strains were obtained. Among these, 55 strains were Gram-positive bacteria and 14 strains were Gram-negative bacteria. Of the Gram-positive bacteria, 43 strains were staphylococci, including 18 Staphylococcus aureus strains, 8 Staphylococcus epidermidis strains, and 5 Staphylococcus lugdunensis strains. One ATCC standard strain was additionally used as a standard and quality control strain.
(§2) Preparation of biofilms: In a sterile environment, a single, identified, and thawed colony was picked with an inoculation loop and bacterial inoculums were adjusted to a 0.5 McFarland standard, which served as an initial bacterial inoculum. The bacterial inoculum was diluted in a 1:200 ratio by adding 50 μL of the initial bacterial inoculums to 10 mL of a CAMHB medium. 150 μL of the bacterial inoculums was transferred to a CBD plate using a pipette. The inoculated CBD plate was incubated in an incubator at 35±2° C. for 16-20 hours.
(§3) Determination of antibacterial activity: The minimum inhibitory concentration (MIC) and the minimum biofilm bactericidal concentration (MBBC) for in vitro biofilms of the compound of formula (I) and control drugs (see details in 2) against 69 clinically isolated diabetic foot infection clinical strains were evaluated using the standard broth dilution method and the in vitro biofilm culture and drug susceptibility methods reported in the literature.

[2] = tested on: Staphylococcus aureus (18 strains); assay: MBBC against biofilms of clinical DFI isolates, Staphylococcus aureus
Procedure: as §1, §2, §3

[3] = tested on: Gram-positive bacteria (55 strains); assay: MIC by standard broth dilution against clinical DFI isolates, Gram-positive bacteria
Procedure: as §1, §3

[4] = tested on: Gram-positive bacteria (55 strains); assay: MBBC for in vitro biofilms of clinical DFI isolates, Gram-positive bacteria
Procedure: as §1, §2, §3

[5] = tested on: Staphylococci (43 strains); assay: MIC against clinical DFI isolates, staphylococci total
Procedure: as §1, §3

[6] = tested on: Gram-negative bacteria (14 strains); assay: MBBC for in vitro biofilms of clinical DFI isolates, Gram-negative bacteria
Procedure: as §1, §2, §3

[7] = tested on: Gram-negative bacteria (14 strains); assay: MIC by standard broth dilution against clinical DFI isolates, Gram-negative bacteria
Procedure: as §1, §3

[8] = tested on: Staphylococcus aureus (18 strains); assay: MIC against clinical DFI isolates, Staphylococcus aureus
Procedure: as §1, §3

[9] = tested on: Staphylococcus epidermidis (8 strains); assay: MBBC against biofilms of clinical DFI isolates, Staphylococcus epidermidis
Procedure: as §1, with “strain. […]” for “strain.”
as §3

[10] = tested on: Staphylococcus epidermidis (8 strains); assay: MIC against clinical DFI isolates, Staphylococcus epidermidis
Procedure: as §1, §3

[11] = biofilms, Staphylococci (43 strains), total, read-out: MBBC50
[12] = biofilms, Staphylococci (43 strains), total, read-out: MBBC90
[13] = biofilms, Staphylococcus aureus (18 strains), read-out: MBBC50
[14] = biofilms, Staphylococcus aureus (18 strains), read-out: MBBC90
[15] = Gram-positive bacteria (55 strains), clinical DFI isolates
[16] = Gram-positive bacteria (55 strains), clinical DFI isolates, read-out: MIC50
[17] = biofilms, Gram-positive bacteria (55 strains), read-out: MBBC50
[18] = biofilms, Gram-positive bacteria (55 strains), read-out: MBBC90
[19] = Staphylococci (43 strains), total, read-out: MIC90
[20] = Staphylococcus aureus (18 strains)
[21] = Staphylococcus aureus (18 strains), read-out: MIC90
[22] = biofilms, Staphylococcus aureus (18 strains)
[23] = Staphylococci (43 strains), total
[24] = Staphylococci (43 strains), total, read-out: MIC50
[25] = Staphylococcus aureus (18 strains), read-out: MIC50
[26] = biofilms, Gram-positive bacteria (55 strains)

SMILES | MBC [1, 11] | MBC [1, 12] | MBC [2, 13] | MBC [2, 14] | MIC90 [3, 15] | MIC50 [3, 16] | MBC [4, 17] | MBC [4, 18] | MIC90 [5, 19] | MBC ([6]; read-out: MBBC50) | MBC ([6]; read-out: MBBC90) | MIC50 [7] | MIC90 [7] | MIC range [8, 20] | MIC90 [8, 21] | MIC range [5, 23] | MIC50 [5, 24] | MIC range [10] | MIC50 [8, 25] | other results
CCC[C@@H]1C[C@@H](C(=O)N[C@@H]([C@H]2O[C@H](SC)[C@H](O)[C@@H](O)[C@H]2O)[C@H](C)Cl)N(C)C1 [Clindamycin] | > 128 µg/mL | > 128 µg/mL | > 128 µg/mL | > 128 µg/mL | > 128 µg/mL | 0.25 µg/mL (≈ 0.588 µM) | > 128 µg/mL | > 128 µg/mL | 128 µg/mL (≈ 301 µM) | > 128 µg/mL | > 128 µg/mL | > 128 µg/mL | > 128 µg/mL | ≤0.06~0.5 μg/mL | 0.25 µg/mL (≈ 0.588 µM) |  |  |  |  | MIC50 [5]: 0.125 µg/mL (≈ 0.294 µM); MIC50 ([8]; Staphylococcus aureus): 0.125 µg/mL (≈ 0.294 µM)
CO[C@H]1/C=C/O[C@@]2(C)Oc3c(C)c(O)c4c(O)c(c(/C=N/N5CCC(N(C)C6([C@@H]7CCN(c8c(F)cn9c(=O)c(C(=O)O)cc(C%10CC%10)c9c8C)C7)CC6)CC5)c(O)c4c3C2=O)NC(=O)/C(C)=C\C=C\[C@H](C)[C@H](O)[C@@H](C)[C@@H](O)[C@@H](C)[C@H](OC(C)=O)[C@@H]1C [Compound of formula (I)] | 0.06 µg/mL | 0.5 µg/mL | 0.25 µg/mL | 0.5 µg/mL | 0.25 µg/mL | ≤ 0.015 µg/mL | 0.125 µg/mL | 16 µg/mL | ≤ 0.015 µg/mL | > 16 µg/mL | > 32 µg/mL | > 32 µg/mL | > 32 µg/mL | ≤0.015~0.03 μg/mL | ≤ 0.015 µg/mL | ≤0.015~0.25 μg/mL | ≤ 0.015 µg/mL | ≤0.015~0.03 ^ μg/mL | ≤ 0.015 µg/mL | MBBC range ([1]; biofilms, Staphylococci (43 strains), total): ≤0.015~1 μg/mL; MBBC range ([1]; in vitro biofilms of staphylococci): 0.015 to 1 g/mL; MBBC50 ([1]; staphylococci biofilms): 0.06 µg/mL; MBBC90 ([1]; staphylococci biofilms): 0.5 µg/mL; MBBC50 ([2]; Staphylococcus aureus biofilms): 0.25 µg/mL; MBBC range [2, 22]: 0.03~0.5 μg/mL; MBBC range ([2]; in vitro biofilms of Staphylococcus aureus): 0.03 to 0.5 g/mL; MBBC range [9]: ≤0.015~0.06 ^ μg/mL; MIC50 ([3]; Gram-positive bacterial isolates, text b97): < 0.015 µg/mL; MIC50 ([5]; staphylococci, read-out: MIC50): < 0.015 µg/mL; MIC90 ([5]; staphylococci, read-out: MIC90): 0.015 µg/mL; MIC50 ([8]; Staphylococcus aureus, read-out: MIC50): < 0.015 µg/mL; MIC90 ([8]; Staphylococcus aureus, read-out: MIC90): 0.015 µg/mL
CC(=O)NC[C@H]1CN(c2ccc(N3CCOCC3)c(F)c2)C(=O)O1 [Linezolid] | > 128 µg/mL | > 128 µg/mL | > 128 µg/mL | > 128 µg/mL |  |  | > 128 µg/mL | > 128 µg/mL | 4 µg/mL (≈ 11.9 µM) | > 128 µg/mL | > 128 µg/mL | > 128 µg/mL | > 128 µg/mL | 2~4 μg/mL | 4 µg/mL (≈ 11.9 µM) | 0.5~4 μg/mL | 2 µg/mL (≈ 5.93 µM) | 2~4 μg/mL | 2 µg/mL (≈ 5.93 µM) | MBBC50 [4, 26]: >128 µg/mL; MBBC90 [4, 26]: >128 µg/mL; MIC50 ([5]; staphylococci, read-out: MIC50): 2 µg/mL (≈ 5.93 µM); MIC90 ([5]; staphylococci, read-out: MIC90): 4 µg/mL (≈ 11.9 µM)
C/C(=C\C(=O)OCCCCCCCCC(=O)O)C[C@@H]1OC[C@H](C[C@@H]2O[C@H]2[C@@H](C)[C@H](C)O)[C@@H](O)[C@H]1O [Mupirocin] | > 128 µg/mL | > 128 µg/mL | > 128 µg/mL | > 128 µg/mL | 64 µg/mL (≈ 128 µM) |  | > 128 µg/mL | > 128 µg/mL | 32 µg/mL (≈ 63.9 µM) | > 128 µg/mL | > 128 µg/mL | > 128 µg/mL | > 128 µg/mL |  | > 128 µg/mL |  | 0.25 µg/mL (≈ 0.499 µM) | 0.25~0.5 μg/mL | 0.25 µg/mL (≈ 0.499 µM) | 
Cc1onc(-c2ccccc2)c1C(=O)N[C@@H]1C(=O)N2[C@@H]1SC(C)(C)[C@@H]2C(=O)O [Oxacillin] | > 128 µg/mL | > 128 µg/mL | 32 µg/mL (≈ 79.7 µM) | > 128 µg/mL |  |  | > 128 µg/mL | > 128 µg/mL | 128 µg/mL (≈ 319 µM) | > 128 µg/mL | > 128 µg/mL | > 128 µg/mL | > 128 µg/mL |  | 64 µg/mL (≈ 159 µM) |  | 2 µg/mL (≈ 4.98 µM) |  | 0.5 µg/mL (≈ 1.25 µM) | 
CO[C@H]1/C=C/O[C@@]2(C)Oc3c(C)c(O)c4c(O)c(c(/C=N/N5CCN(C)CC5)c(O)c4c3C2=O)NC(=O)/C(C)=C\C=C\[C@H](C)[C@H](O)[C@@H](C)[C@@H](O)[C@@H](C)[C@H](OC(C)=O)[C@@H]1C [Rifampicin] | 4 µg/mL (≈ 4.86 µM) | > 16 µg/mL | 16 µg/mL (≈ 19.4 µM) | > 16 µg/mL | 0.5 µg/mL (≈ 0.608 µM) | ≤ 0.015 µg/mL | 8 µg/mL (≈ 9.72 µM) | > 16 µg/mL | ≤ 0.015 µg/mL | > 16 µg/mL | > 32 µg/mL | 32 µg/mL (≈ 38.9 µM) | > 32 µg/mL | ≤0.015 µg/mL | ≤ 0.015 µg/mL |  | ≤ 0.015 µg/mL | ≤0.015 µg/mL | ≤ 0.015 µg/mL | MBBC range [2, 22]: ≤0.03~16 ^ μg/mL; MBBC range [9]: 0.03~16 ^ μg/mL
CN[C@H](CC(C)C)C(=O)N[C@H]1C(=O)N[C@@H](CC(N)=O)C(=O)N[C@H]2C(=O)N[C@H]3C(=O)N[C@H](C(=O)N[C@H](C(=O)O)c4cc(O)cc(O)c4-c4cc3ccc4O)[C@H](O)c3ccc(c(Cl)c3)Oc3cc2cc(c3O[C@@H]2O[C@H](CO)[C@@H](O)[C@H](O)[C@H]2O[C@H]2C[C@](C)(N)[C@H](O)[C@H](C)O2)Oc2ccc(cc2Cl)[C@H]1O [Vancomycin] |  |  |  |  | 2 µg/mL (≈ 1.38 µM) | 2 µg/mL (≈ 1.38 µM) |  |  |  | > 128 µg/mL | > 128 µg/mL | > 128 µg/mL | > 128 µg/mL | 1~2 μg/mL |  | 1~4 μg/mL |  | 2~4 μg/mL |  | MBC ([1]; read-out: MBBC50): > 128 µg/mL; MBC ([1]; read-out: MBBC90): > 128 µg/mL; MBC ([2]; Staphylococcus aureus, read-out: MBBC50): > 128 µg/mL; MBC ([2]; Staphylococcus aureus, read-out: MBBC90): > 128 µg/mL; MBBC50 [4, 26]: >128 µg/mL; MBBC90 [4, 26]: >128 µg/mL; MBC ([4]; read-out: MBBC50): > 128 µg/mL; MBC ([4]; read-out: MBBC90): > 128 µg/mL; MIC50 [5]: 2 µg/mL (≈ 1.38 µM); MIC90 [5]: 2 µg/mL (≈ 1.38 µM); MIC50 ([5]; staphylococci): 2 µg/mL (≈ 1.38 µM); MIC90 ([5]; staphylococci): 2 µg/mL (≈ 1.38 µM); MIC50 ([8]; Staphylococcus aureus): 2 µg/mL (≈ 1.38 µM); MIC90 ([8]; Staphylococcus aureus): 2 µg/mL (≈ 1.38 µM)
